# Earlier results in US11266662B2, “Ganaxolone for use in prophylaxis and treatment of postpartum depression” (Marinus Pharmaceuticals, Inc., priority 2018, dated 2022).
# Test system: patients
# Conditions: 60 μg and 90 μg brexanolone dose regimens, IV infusion; cited from earlier work
structure (smiles),measurement,value
CC(=O)[C@H]1CC[C@H]2[C@@H]3CC[C@H]4C[C@H](O)CC[C@]4(C)[C@H]3CC[C@]12C [brexanolone],"Patients with abrupt loss of consciousness, syncope or presyncope",about 4%
